Experimental data as given in the supplement of paper PMC10307832.

Columns and labels:
Experiment in all cases: relative viability (nuclei count vs DMSO), 5 days (fraction); higher = more cells survive
[1] = compound: CC[C@H](Nc1ncnc2[nH]cnc12)c1nc2cccc(F)c2c(=O)n1-c1ccccc1 [Idelalisib] + CS(=O)(=O)N1CCN(Cc2cc3nc(-c4cccc5[nH]ncc45)nc(N4CCOCC4)c3s2)CC1 [Pictilisib] (partner 1 µM)
Summary of the method: (§1)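 One day after seeding in 1536-well plates, lung cancer cell lines were dosed by pin tool. Dosing was either single-drug or a fixed anchor-drug dose plus five library-drug doses (not always all listed) in √10 steps. After 5 days, nuclei were stained in one fix-and-stain step and counted on 4× images, and relative viability is the nuclei count of treated wells over that of vehicle wells, given as the median of duplicate plates.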

[2] = compound: CC[C@H](Nc1ncnc2[nH]cnc12)c1nc2cccc(F)c2c(=O)n1-c1ccccc1 [Idelalisib] + C[C@@H](Oc1cc(-c2cnn(C3CCNCC3)c2)cnc1N)c1c(Cl)ccc(F)c1Cl [Crizotinib] (partner 1 µM)
Summary of the method: as §1

[3] = compound: Nc1nc2[nH]cc(CCc3ccc(C(=O)N[C@@H](CCC(=O)O)C(=O)O)cc3)c2c(=O)[nH]1 [Pemetrexed] + NC(=O)Nc1cc(-c2cccc(F)c2)sc1C(=O)N[C@H]1CCCNC1 [AZD7762] (partner 0.2 µM)
Summary of the method: as §1

[4] = compound: Nc1nc2[nH]cc(CCc3ccc(C(=O)N[C@@H](CCC(=O)O)C(=O)O)cc3)c2c(=O)[nH]1 [Pemetrexed] + CS(=O)(=O)N1CCN(Cc2cc3nc(-c4cccc5[nH]ncc45)nc(N4CCOCC4)c3s2)CC1 [Pictilisib] (partner 1 µM)
Summary of the method: as §1

Cell Line	relative viability ([1]; first compound 0.04 µM)	relative viability ([1]; first compound 0.1265 µM)	relative viability ([1]; first compound 1.265 µM)	relative viability ([1]; first compound 4 µM)	relative viability ([2]; first compound 0.04 µM)	relative viability ([2]; first compound 0.1265 µM)	relative viability ([2]; first compound 1.265 µM)	relative viability ([2]; first compound 4 µM)	relative viability ([3]; first compound 0.002 µM)	relative viability ([3]; first compound 0.006325 µM)	relative viability ([3]; first compound 0.02 µM)	relative viability ([3]; first compound 0.06325 µM)	relative viability ([3]; first compound 0.2 µM)	relative viability ([4]; first compound 0.002 µM)	relative viability ([4]; first compound 0.006325 µM)	relative viability ([4]; first compound 0.02 µM)	relative viability ([4]; first compound 0.06325 µM)	relative viability ([4]; first compound 0.2 µM)	relative viability ([1]; first compound 0.4 µM)	relative viability ([2]; first compound 0.4 µM)
HOP-62	0.883	0.712	0.649	0.792	0.944	0.964	0.806	1.03	0.485	0.534	0.45	0.762	0.483	0.351	0.666	0.817	0.655	0.655	–	–
LC-2-ad	0.534	0.516	0.467	0.417	0.427	0.415	0.439	0.508	0.726	0.816	0.43	0.276	0.233	0.402	0.306	0.428	0.211	0.123	0.415	0.447
SW 900	–	–	–	–	–	–	–	–	0.692	0.599	0.609	0.497	0.376	–	–	–	–	–	–	–
NCI-H322M	0.546	0.584	0.508	0.549	1	0.842	0.687	0.809	0.709	0.634	0.565	0.637	0.557	0.29	0.449	0.553	0.49	0.567	0.444	0.792
SK-LU-1	0.553	0.668	0.574	0.552	0.923	1.06	0.777	0.826	–	–	–	–	–	0.43	0.559	0.727	0.513	0.496	0.532	0.826
NCI-H1734	0.519	0.492	0.453	0.37	0.789	0.639	0.685	0.527	0.415	0.584	0.649	0.508	0.332	0.461	0.457	0.489	0.475	0.376	0.41	0.604
HCC-44	0.679	0.646	0.59	0.591	0.822	0.857	0.948	0.85	0.928	1.01	0.991	1.03	0.944	1.52	0.61	0.654	0.537	0.395	0.526	0.819
NCI-H1703	0.229	0.237	0.247	0.197	0.857	0.56	0.754	0.315	0.127	0.133	0.127	0.12	0.146	–	0.248	0.29	0.287	0.264	0.23	0.631
NCI-H2170	0.313	0.312	0.295	0.29	1.23	1.18	1.07	0.983	0.873	0.916	0.864	0.774	0.357	0.303	0.307	0.242	0.305	0.276	0.228	1.07
NCI-H1395	0.714	0.525	0.613	0.557	–	–	–	–	0.387	0.373	0.421	0.415	0.38	0.824	0.58	0.679	0.54	0.574	0.564	–
NCI-H1355	0.521	0.501	0.376	0.449	1.21	1.13	0.988	0.902	0.732	0.838	0.771	0.794	0.808	0.294	0.383	0.377	0.481	0.428	0.4	0.977
NCI-H1650	0.668	0.608	0.645	0.593	0.87	0.892	0.985	0.952	–	–	–	–	–	0.545	0.559	0.658	0.333	0.226	0.553	0.975
IA-LM	0.275	0.344	0.445	0.296	0.745	0.849	1.19	0.818	–	–	–	–	–	0.115	0.323	–	0.343	0.339	0.358	0.944
NCI-H1666	0.541	0.48	0.361	0.333	0.953	1.03	0.964	0.721	0.79	0.843	0.835	0.72	0.456	0.373	0.481	0.347	0.497	0.306	0.469	0.809
HCC-78	0.222	0.208	0.21	0.228	0.322	0.354	0.31	0.274	–	0.505	0.42	0.3	0.236	–	0.179	0.197	0.14	0.157	0.206	0.296
H3255	0.416	0.442	0.436	0.404	0.77	0.898	0.876	0.734	0.798	0.916	0.928	0.79	0.571	0.385	0.43	0.504	0.42	0.431	0.44	0.757
NCI-H23	0.689	0.489	0.451	0.462	0.723	0.56	0.533	0.387	0.253	0.231	0.232	0.235	0.245	0.395	0.416	0.538	0.516	0.408	0.381	0.277
